For assay [1], the target named is T1, PITRM1 Presequence protease mitochondrial (Q5JRX3) (Homo sapiens, UniProt Q5JRX3).
T1 construct: In Situ Labelling of Cells with Hydrazine Probes for MS Experiments; endogenous in cells
In words: SILAC RP-ABPP. Conditions: SILAC H/L, MDA-MB-231. It is filed as cell-based. The essentials:
(§1)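 Heavy SILAC HEK293T or MDA-MB-231 cells were treated with hydrazine probe 1 (3 mM, 0.5 h); light cells received non-clickable hydrazine 3 at the same concentration (enrichment) or probe plus 10× competitor 3 (competition). Lysates were mixed, clicked to biotin-azide and analysed by LC-MS; values are median heavy:light peptide ratios averaged over ≥3 replicates.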

Assay [2] addresses T2, BLVRB Flavin reductase (NADPH) (P30043) (Homo sapiens, UniProt P30043).
T2 construct: shared by both the endogenous and recombinant forms of these proteins; endogenous in cells; host or cells: HEK293T and MDA-MB-231
In words: SILAC RP-ABPP. It is filed as cell-based. The note with it: SILAC H/L, HEK293T. The gist of the method:
as §1

The target in assay [3] is T3, APP Amyloid beta A4 protein (P05067) (Homo sapiens, UniProt P05067).
T3 construct: shared by both the endogenous and recombinant forms of these proteins; endogenous in cells; host or cells: HEK293T and MDA-MB-231
T3 sequence (P05067 18-770): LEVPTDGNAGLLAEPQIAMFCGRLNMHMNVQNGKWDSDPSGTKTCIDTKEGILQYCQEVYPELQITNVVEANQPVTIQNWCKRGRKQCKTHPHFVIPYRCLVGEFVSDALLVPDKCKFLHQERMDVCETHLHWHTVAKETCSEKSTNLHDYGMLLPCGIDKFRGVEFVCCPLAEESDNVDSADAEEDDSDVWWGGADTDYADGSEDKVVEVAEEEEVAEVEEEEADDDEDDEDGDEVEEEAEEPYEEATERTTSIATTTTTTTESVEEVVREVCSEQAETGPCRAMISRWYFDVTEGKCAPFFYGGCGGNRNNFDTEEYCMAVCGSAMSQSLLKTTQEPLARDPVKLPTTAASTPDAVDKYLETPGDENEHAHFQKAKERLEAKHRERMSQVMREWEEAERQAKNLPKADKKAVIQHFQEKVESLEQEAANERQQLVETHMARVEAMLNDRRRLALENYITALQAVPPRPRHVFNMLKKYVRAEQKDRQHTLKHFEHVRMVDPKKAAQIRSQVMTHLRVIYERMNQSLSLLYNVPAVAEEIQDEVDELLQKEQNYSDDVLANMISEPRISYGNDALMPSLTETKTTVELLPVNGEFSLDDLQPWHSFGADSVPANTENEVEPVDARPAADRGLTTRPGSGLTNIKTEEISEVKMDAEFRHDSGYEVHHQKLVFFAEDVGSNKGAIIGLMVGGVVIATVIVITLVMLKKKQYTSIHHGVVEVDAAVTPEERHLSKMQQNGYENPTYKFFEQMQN
In words: SILAC RP-ABPP. It is filed as cell-based. Conditions: SILAC H/L, MDA-MB-231. The gist of the method:
as §1

For assay [4], the target named is T4, ALDH9A1 4trimethylaminobutyraldehyde (P49189) (Homo sapiens, UniProt P49189).
T4 construct: shared by both the endogenous and recombinant forms of these proteins; endogenous in cells; host or cells: HEK293T and MDA-MB-231
T4 sequence (P49189 whole entry): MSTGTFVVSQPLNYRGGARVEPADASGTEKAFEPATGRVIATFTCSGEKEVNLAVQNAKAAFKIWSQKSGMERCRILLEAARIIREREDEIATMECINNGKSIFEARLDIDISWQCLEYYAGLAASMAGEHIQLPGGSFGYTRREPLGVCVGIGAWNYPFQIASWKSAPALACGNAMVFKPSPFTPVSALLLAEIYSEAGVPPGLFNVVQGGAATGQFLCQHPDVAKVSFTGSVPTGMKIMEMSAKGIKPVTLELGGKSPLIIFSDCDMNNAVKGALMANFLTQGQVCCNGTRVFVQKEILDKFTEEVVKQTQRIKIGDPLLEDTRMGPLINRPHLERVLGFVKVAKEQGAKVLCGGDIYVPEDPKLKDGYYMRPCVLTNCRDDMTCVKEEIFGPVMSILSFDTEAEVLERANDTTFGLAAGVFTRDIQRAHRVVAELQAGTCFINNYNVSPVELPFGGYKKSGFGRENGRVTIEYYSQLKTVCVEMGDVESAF
Kind of assay: SILAC RP-ABPP. Conditions: SILAC H/L, HEK293T. It is filed as cell-based. The gist of the method: as §1

Assay [5] relates to lung, brain and liver tissue. In words: in vivo probe labelling, in-gel fluorescence of tissue proteomes. Also noted: species or system mice. Conditions: i.p., four hours; soluble and membrane proteomes. The method, then:
Studies were conducted to determine whether probes can be used to label proteins in vivo. Mice were injected intraperitoneally (i.p,) with hydrazine probe 2. After treatment with probes for four hours, lung, brain and liver tissue was harvested, processed and labeled with rhodamine azide as described in Example 2. Probe labelled proteins were visualized by in-gel fluorescence scanning. The results are shown FIGS. 24A and 24B.

T2 sequence (P30043 whole entry): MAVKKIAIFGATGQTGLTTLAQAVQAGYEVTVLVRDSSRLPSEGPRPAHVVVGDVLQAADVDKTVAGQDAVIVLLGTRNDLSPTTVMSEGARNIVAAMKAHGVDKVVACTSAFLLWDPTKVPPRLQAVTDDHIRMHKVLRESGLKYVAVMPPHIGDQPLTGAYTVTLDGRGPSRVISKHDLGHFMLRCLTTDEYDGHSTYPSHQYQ
T1 sequence (Q5JRX3 29-1037): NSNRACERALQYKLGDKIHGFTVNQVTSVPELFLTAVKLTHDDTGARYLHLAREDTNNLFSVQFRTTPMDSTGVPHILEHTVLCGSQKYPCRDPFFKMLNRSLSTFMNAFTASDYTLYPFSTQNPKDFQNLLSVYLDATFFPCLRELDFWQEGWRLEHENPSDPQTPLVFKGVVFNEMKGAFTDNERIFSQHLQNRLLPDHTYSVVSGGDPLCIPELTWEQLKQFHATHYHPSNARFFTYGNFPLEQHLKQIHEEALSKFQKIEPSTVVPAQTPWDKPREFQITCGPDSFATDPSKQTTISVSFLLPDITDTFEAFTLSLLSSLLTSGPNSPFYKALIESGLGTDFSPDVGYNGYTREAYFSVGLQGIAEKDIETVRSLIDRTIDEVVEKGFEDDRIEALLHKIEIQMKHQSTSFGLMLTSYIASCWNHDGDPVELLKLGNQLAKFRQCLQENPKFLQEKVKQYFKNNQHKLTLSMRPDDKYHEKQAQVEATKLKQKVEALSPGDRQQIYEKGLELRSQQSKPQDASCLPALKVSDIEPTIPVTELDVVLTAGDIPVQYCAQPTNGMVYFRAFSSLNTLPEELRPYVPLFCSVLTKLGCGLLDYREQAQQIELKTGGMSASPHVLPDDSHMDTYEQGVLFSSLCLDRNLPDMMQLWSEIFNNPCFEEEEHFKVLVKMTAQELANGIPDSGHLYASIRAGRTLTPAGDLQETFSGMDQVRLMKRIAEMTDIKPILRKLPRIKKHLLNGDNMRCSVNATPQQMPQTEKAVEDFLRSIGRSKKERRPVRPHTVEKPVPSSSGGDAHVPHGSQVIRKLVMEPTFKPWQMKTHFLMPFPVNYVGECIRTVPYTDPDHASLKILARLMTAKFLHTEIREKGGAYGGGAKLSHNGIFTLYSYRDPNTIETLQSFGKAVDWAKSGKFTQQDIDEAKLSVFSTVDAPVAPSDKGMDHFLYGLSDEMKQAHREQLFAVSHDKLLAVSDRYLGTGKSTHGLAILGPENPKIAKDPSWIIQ

On to `C#CCNN.Cl` [probe 1, prop-2-yn-1-ylhydrazine hydrochloride], for which the enrichment ratioavg in assay [1] (probe 1 3 mM 0.5 h vs probe 3) is 12; in assay [2] (probe 1 3 mM 0.5 h vs probe 3) it was 20; in assay [3] (probe 1 3 mM 0.5 h vs probe 3), 16; in assay [4] (probe 1 3 mM 0.5 h vs probe 3), 12. Also, the competition ratioavg is listed as 2 in assay [1] (probe 1 vs probe 1+10x probe 3), 2 in assay [2] (probe 1 vs probe 1+10x probe 3), 4 in assay [3] (probe 1 vs probe 1+10x probe 3) and 2 in assay [4] (probe 1 vs probe 1+10x probe 3).
Regarding `C#CCCNC(=O)c1ccc(NN)cc1.Cl` [probe 2, N-(but-3-yn-1-yl)-4-hydrazinylbenzamide hydrochloride], the “labelling of proteins in vivo” value in assay [5] was “can be used to label and profile proteins in vivo”.

For the origin of these results see US11226337B2, “Chemoproteomic profiling of protein electrophilic and oxidative post-translational modifications” (Zenagem, LLC, priority 2017, dated 2022).
